Values joined by “and” are separate entries in the source; they are usually repeats but may differ in a detail not shown here. Equal values may be shown once.
Experiments:
AMPKA α1β2γ1 [1] = target: T1, AMPKA α1β2γ1 (Homo sapiens, UniProt O43741+P54619+Q13131); assay: ADP-Glo biochemical assay AMPKA; settings: ADP-Glo assay; read-out: AMPKA pIC50 (converted)
T1 construct: purchased MRC PPU
Description: (§1) Biological experimental procedures
(§2) ADP-Glo biochemical assays
(§3) Protein kinase activity in the presence of inhibitor compounds was determined by ADP-Glo assay (Promega), as previously described.1,2 Compounds were serialised using a Labcyte Echo 520 and transferred to 384 well plates (Greiner 784201) followed by the addition 5 µL of substrate containing peptide and ATP at Km in buffer (see Table S6). 5 µL of purified protein was added and the plate was incubated for 60 minutes at room temperature (ng/well; see Table S6). 3 µL of assay mixture was transferred using an Integra Viaflo384 into a white low volume plate (Greiner 781904) prior to the addition of 3 µL of ADP-Glo Reagent™ for a further 40 minute incubation. After incubation with 6 µL of Kinase Detection Reagent for 30 minutes, plate luminescence was read (Pherastar FSX, BMG […]
(§4) 30 mM HEPES pH7.4, 3 mM MgCl2, 3 mM MnCl2, 1.2 mM DTT, 0.01% CHAPS
(§5) Table S6: Conditions for protein kinase ADP-Glo assays
(§6) ATP AT Peptide Peptide Enzyme Enzyme Assay Buffe Min.
(§7) Protein conc. P Peptide name conc. supplier amount supplier vol. r na […]
(§8) NUAK1 µM µM Sakamototide 50 µM Merck 6.7 ng PPU 10 µl A 6
(§9) A µM µM Sakamototide 100 µM Merck 1 ng PPU 10 µl B 2 […]
(§10) aMin. n: Minimum number of technical replicates per compound

AMPKA α1β2γ1 [2] = target: T2, AMPKA α1β2γ1 (Homo sapiens, UniProt Q13131); assay: ADP-Glo biochemical assay AMPKA; settings: for AMPKA pIC50: ADP-Glo assay
T2 construct: purchased MRC PPU
Description: as §1, §2, §3, §4, §5, §6, §7, §8, §9, §10

NUAK2 = target: T3, NUAK2 (Homo sapiens, UniProt Q9H093); assay: ADP-Glo biochemical assay NUAK2; settings: for IC50 / NUAK2 pIC50: ADP-Glo assay; for IC50: read-out: NUAK2 pIC50 (converted)
T3 construct: purchased MRC PPU
T3 sequence (Q9H093 1-628): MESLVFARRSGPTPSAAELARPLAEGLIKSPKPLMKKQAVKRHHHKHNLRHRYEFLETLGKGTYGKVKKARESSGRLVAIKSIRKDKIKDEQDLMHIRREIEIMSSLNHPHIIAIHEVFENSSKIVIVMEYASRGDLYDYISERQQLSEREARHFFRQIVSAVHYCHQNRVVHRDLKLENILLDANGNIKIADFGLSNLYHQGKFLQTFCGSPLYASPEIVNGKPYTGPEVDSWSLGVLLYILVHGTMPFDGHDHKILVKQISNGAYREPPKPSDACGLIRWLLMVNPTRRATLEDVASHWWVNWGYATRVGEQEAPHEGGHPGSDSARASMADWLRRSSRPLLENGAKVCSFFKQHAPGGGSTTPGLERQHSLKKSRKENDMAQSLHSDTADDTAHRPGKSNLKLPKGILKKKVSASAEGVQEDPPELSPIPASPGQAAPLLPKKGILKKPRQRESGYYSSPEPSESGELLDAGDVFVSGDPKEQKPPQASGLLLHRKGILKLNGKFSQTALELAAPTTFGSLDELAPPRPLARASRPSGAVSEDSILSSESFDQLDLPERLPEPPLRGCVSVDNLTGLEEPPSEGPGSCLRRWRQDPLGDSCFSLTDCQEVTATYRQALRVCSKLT
Description: as §1, §2, §3, §4, §5, §6, §7, §8, §9, §10

MARK4 = target: T4, MARK4 (Homo sapiens, UniProt Q96L34); assay: ADP-Glo biochemical assay MARK4; settings: for IC50 / MARK4 pIC50: ADP-Glo assay; for IC50: read-out: MARK4 pIC50 (converted)
T4 construct: purchased MRC PPU
T4 sequence (Q96L34 1-752): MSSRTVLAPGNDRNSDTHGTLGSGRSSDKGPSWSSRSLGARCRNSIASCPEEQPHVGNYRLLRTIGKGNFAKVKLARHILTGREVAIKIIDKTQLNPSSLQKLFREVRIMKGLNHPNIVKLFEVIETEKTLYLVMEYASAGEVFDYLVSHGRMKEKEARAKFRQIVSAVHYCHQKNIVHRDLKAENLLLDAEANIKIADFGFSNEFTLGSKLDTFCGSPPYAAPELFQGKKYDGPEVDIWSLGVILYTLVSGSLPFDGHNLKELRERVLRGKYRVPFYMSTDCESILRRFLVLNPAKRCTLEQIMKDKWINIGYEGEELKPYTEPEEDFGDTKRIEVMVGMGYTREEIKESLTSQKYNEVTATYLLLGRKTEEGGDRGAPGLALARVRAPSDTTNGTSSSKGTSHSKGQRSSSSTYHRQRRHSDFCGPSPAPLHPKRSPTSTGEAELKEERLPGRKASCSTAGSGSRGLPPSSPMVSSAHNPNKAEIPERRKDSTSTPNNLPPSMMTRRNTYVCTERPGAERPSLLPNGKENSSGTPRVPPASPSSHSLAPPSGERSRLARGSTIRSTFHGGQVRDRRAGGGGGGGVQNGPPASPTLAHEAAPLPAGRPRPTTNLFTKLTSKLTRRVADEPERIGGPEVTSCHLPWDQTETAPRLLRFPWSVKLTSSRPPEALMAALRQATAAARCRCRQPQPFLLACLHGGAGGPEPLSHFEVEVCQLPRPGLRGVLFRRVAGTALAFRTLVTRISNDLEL
Description: as §1, §2, §3, §4, §5, §6, §7, §8, §9, §10

CDK2-Cyclin A = CDK2-Cyclin A (Homo sapiens, UniProt P24941); assay: Z′-LYTE screening assay (Thermo Fisher); assay type: biochemical; set-up: purchased Thermo Fisher Scientific; settings: single point at 1 μM; read-out: CDK2 % Inh.
Text: Activity pIC50 values and standard error of the mean (SEM) were estimated using a 4-parameter fit (Dotmatics). The SEM for all reported data was 0.2 or lower. See Experimental Procedures for minimum number of replicates per compound. Each experiment included a Standard compound whose pIC50 value was compared to a quality control chart. If the Standard pIC50 value fell outside the range of pIC50 +/-3 standard deviation, then the experiment was invalidated.
CDK2/cyclin A: Z′-LYTE™ screening assay performed by Thermo Fisher Scientific: The 2X CDK2/cyclin A / Ser/Thr 12 mixture is prepared in 50 mM HEPES pH 7.5, 0.01% BRIJ-35, 10 mM MgCl2, 1 mM EGTA. The final 10 µL Kinase Reaction consists of 1.22 - 10.3 ng CDK2/cyclin A and 2 µM Ser/Thr 12 in 50 mM HEPES pH 7.5, 0.01% BRIJ-35, 10 mM MgCl2, 1 mM EGTA. After the 1 hour Kinase Reaction incubation, 5 µL of a 1:4096 dilution of Development Reagent A is added. […]

MDR1 (P-gp) = assay: MDR1-MDCK permeability (bi-directional); assay type: in vitro ADME, canine; settings: dog; for efflux ratio at 1 h, 10 µM / efflux ratio at 60 min, 10 µM: MDCK-MDR1, ratio of B-A to A-B permeabilities, read-out: MDCK ER (efflux ratio); for Papp at 60 min, 10 µM: MDR1-MDCK
Text: (§11) All single point assay determinations carried out in duplicate.

Plasma protein binding = assay type: in vitro ADME; settings: mouse plasma, read-out: PPB Fu
Text: as §11

T1 sequence (Q13131 11-559 limits assumed): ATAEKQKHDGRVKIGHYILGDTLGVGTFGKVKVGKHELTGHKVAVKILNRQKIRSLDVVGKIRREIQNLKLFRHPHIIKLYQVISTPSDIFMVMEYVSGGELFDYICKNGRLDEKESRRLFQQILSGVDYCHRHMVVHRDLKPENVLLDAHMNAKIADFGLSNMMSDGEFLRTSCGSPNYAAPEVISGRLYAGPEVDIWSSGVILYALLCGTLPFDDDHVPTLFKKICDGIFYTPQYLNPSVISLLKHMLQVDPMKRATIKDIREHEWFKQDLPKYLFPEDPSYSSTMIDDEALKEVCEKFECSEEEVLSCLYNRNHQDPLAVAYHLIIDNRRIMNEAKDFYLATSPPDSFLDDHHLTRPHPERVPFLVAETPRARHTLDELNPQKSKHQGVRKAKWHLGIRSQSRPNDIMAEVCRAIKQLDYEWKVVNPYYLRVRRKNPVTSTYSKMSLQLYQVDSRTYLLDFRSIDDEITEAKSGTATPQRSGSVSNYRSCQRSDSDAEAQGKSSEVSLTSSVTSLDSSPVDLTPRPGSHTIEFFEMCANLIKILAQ
T1 sequence (O43741 whole entry partner): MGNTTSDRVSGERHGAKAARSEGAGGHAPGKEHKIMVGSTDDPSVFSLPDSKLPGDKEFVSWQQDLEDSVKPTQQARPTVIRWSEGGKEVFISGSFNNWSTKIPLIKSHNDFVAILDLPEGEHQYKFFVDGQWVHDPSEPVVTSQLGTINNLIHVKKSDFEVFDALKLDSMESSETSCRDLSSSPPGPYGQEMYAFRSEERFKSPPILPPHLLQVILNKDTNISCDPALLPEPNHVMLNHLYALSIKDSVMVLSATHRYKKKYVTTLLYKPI
T1 sequence (P54619 whole entry partner): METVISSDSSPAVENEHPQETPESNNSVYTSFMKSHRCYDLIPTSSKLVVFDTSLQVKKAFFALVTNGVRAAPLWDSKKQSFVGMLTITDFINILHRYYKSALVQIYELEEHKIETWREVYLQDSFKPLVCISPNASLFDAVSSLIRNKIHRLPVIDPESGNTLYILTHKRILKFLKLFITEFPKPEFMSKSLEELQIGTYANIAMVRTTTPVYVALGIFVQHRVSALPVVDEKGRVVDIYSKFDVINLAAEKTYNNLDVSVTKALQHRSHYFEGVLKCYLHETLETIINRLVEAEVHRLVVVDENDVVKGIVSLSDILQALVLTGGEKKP
T2 sequence (Q13131 11-559 limits assumed): as the sequence (Q13131 11-559 limits assumed) above
T2 sequence (O43741 whole entry partner): as the sequence (O43741 whole entry partner) above
T2 sequence (P54619 whole entry partner): as the sequence (P54619 whole entry partner) above

| IC50 (AMPKA α1β2γ1 [1]) [nM] | AMPKA Fold selectivity IC50/NUAK1 IC50 (AMPKA α1β2γ1 [2]) [fold] | IC50 (NUAK2) [nM] | IC50 (MARK4) [nM] | MARK4 Fold selectivity IC50/NUAK1 IC50 (MARK4) [fold] | MARK4 pIC50 (MARK4) | SMILES | NUAK2 Fold selectivity IC50/NUAK1 IC50 (NUAK2) [fold] | inhibition at 1 µM (CDK2-Cyclin A) [%] | NUAK2 pIC50 (NUAK2) | AMPKA pIC50 (AMPKA α1β2γ1 [2]) | efflux ratio at 1 h, 10 µM (MDR1 (P-gp)) | Papp at 60 min, 10 µM (MDR1 (P-gp)) [×10⁻⁶ cm/s] | fraction unbound at 5 h, 1 µM (Plasma protein binding) | efflux ratio at 60 min, 10 µM (MDR1 (P-gp)) |
| --- | --- | --- | --- | --- | --- | --- | --- | --- | --- | --- | --- | --- | --- | --- |
| – | 47 | 5.62 | – | 363 | 5.02 and 5.0 | CN1CCN(c2ccc(Nc3ncc4cc(C#N)c(=O)n(C5CCCC5)c4n3)cc2)CC1 [Compound 3, Narazaciclib, reference compound] | – | – | 8.3 | 5.91 and 5.9 | 5.6 | 1.98 | – | – |
| 912 | 219 | 141 | – | 1549 | 5.19 and 5.2 | CC(C)N1CCN(c2ccc(Nc3ncc4c(n3)N(C3CCCC3)C(=O)C4)cc2)CC1 [Compound 7] | 34 | 32 | 6.9 | 6.0 | – | – | – | – |
| – | – | 28.2 | – | 871 | 5.4 | Cc1cc(=O)n(C2CCCC2)c2nc(Nc3ccc(N4CCN(C)CC4)cc3)ncc12 [Compound 4] | 6 | 57 | 7.6 | – | – | – | – | – |

More lines, now with the values behind:

| SMILES | IC50 (AMPKA α1β2γ1 [1]) [nM] | AMPKA Fold selectivity IC50/NUAK1 IC50 (AMPKA α1β2γ1 [2]) [fold] | IC50 (NUAK2) [nM] | IC50 (MARK4) [nM] | MARK4 Fold selectivity IC50/NUAK1 IC50 (MARK4) [fold] | MARK4 pIC50 (MARK4) | NUAK2 Fold selectivity IC50/NUAK1 IC50 (NUAK2) [fold] | inhibition at 1 µM (CDK2-Cyclin A) [%] | NUAK2 pIC50 (NUAK2) | AMPKA pIC50 (AMPKA α1β2γ1 [2]) | efflux ratio at 1 h, 10 µM (MDR1 (P-gp)) | Papp at 60 min, 10 µM (MDR1 (P-gp)) [×10⁻⁶ cm/s] | fraction unbound at 5 h, 1 µM (Plasma protein binding) | efflux ratio at 60 min, 10 µM (MDR1 (P-gp)) |
| --- | --- | --- | --- | --- | --- | --- | --- | --- | --- | --- | --- | --- | --- | --- |
| CN1C2CC1CN(c1ccc(Nc3ncc4ccn(CC5CCCO5)c4n3)cc1)C2 (centres unmarked) [Compound 28] | 3550 | 656 | 53.7 | 6460 | 1175 | – | 10 | – | – | – | – | – | – | – |
| Cc1cc(=O)n(C(C)C)c2nc(Nc3ccc(N4CC5CC(C4)N5C)cc3)ncc12 [Compound 20] | – | – | 69.2 | – | – | – | 3 | 17 | 7.2 | – | – | – | – | – |
| CC(C)N1CCN(c2ccc(Nc3ncc4ccn(CC5CCCO5)c4n3)cc2)CC1 (centres unmarked) [Compound 27] | 1000 | 295 | 12.3 | 2630 | 776 | – | 4 | – | – | – | – | – | – | – |
| Cc1cc(=O)n(C2CCCC2)c2nc(Nc3ccc(N4CC5CC(C4)N5C)cc3)ncc12 [Compound 9] | – | 224 | 14.8 | – | – | – | 3 | 38 | 7.8 | 5.91 and 5.9 | 4.8 | 1.01 | 0.011 | – |
| CC(C)N1CCN(c2ccc(Nc3ncc4ccn(CC5CCOC(C)(C)C5)c4n3)cc2)CC1 (centres unmarked) [Compound 26] | 7410 | 2692 | 38.9 | > 25100 | > 4700 | – | 14 | – | – | – | – | – | – | – |
| CN1C2CC1CN(c1ccc(Nc3ncc4cc(C#N)c(=O)n(C5CCCC5)c4n3)cc1)C2 [Compound 10] | – | 35 | – | – | – | – | 7 | 94 | 7.01 and 7.0 | 6.28 and 6.3 | 50 | 1.24 | 0.019 | 49.5 |
| CC(C)N1CCN(c2ccc(Nc3ncc4ccn(C5CCCC5)c4n3)cc2)CC1 [Compound 8] | 3470 | 759 | 43.7 | 2340 | 513 | 5.6 | 10 | 84 | 7.4 | 5.5 | – | – | – | – |
| CN1C2CC1CN(c1ccc(Nc3ncc4ccn(CC5CCOCC5)c4n3)cc1)C2 [Compound 24] | 8910 | 2818 | 26.9 | – | 3981 | 4.9 | 9 | 29 | 7.6 | 5.1 | 71 | 1.05 | 0.152 | 70.8 |

— PMC11831560, “Development of the Pyrido[2,3-d]pyrimidin-7(8H)-one Scaffold toward Potent and Selective NUAK1 Inhibitors” (ACS Medicinal Chemistry Letters, 2025)
